US6444691B1, “1,3-disubstituted ureas as ACAT inhibitors, and method of preparing thereof” (Solvakofarma, a.s., priority 1997, dated 2002)

What was measured:
[1] = system: rat liver ACAT (acylCoa:cholesterol acyltransferase); assay: In vitro inhibition of ACAT activity, rat liver microsomal fraction; assay type: biochemical; conditions: rat liver microsomes, concentration 2 μM, versus enzyme activity in 1% dimethylsulfoxide
Procedure: (§1) The biological activity of the substances was evaluated based on the in vitro inhibition of acylCoa:cholesterol acyltransferase (ACAT) activity. The enzyme was obtained from the microsomal fraction of rat liver cells and rabbit intestinal mucosa of animals fed with cholesterol. The substrates for the enzyme reaction included exogenous oleoyl co-enzyme A and endogenous cholesterol. ^14C-oleoyl co-enzyme A conversion to ^14C-cholesteryl oleate was monitored. From the mixture of extracted lipids, cholesteryl oleate was separated using thin-layer chromatography, and was quantified radiometrically. ACAT specific activity was expressed as the amount of cholesteryl oleate formed per minute per mg microsomal protein.
(§2) Efficiency was calculated as compared to enzyme activity measured in the presence of 1% dimethylsulfoxide used as the solvent to prepare solutions of the substances tested.

[2] = system: rabbit intestinal mucosa ACAT (acylCoa:cholesterol acyltransferase); assay: In vitro inhibition of ACAT activity, rabbit intestinal mucosa microsomal fraction; assay type: biochemical; conditions: rabbit intestinal mucosa microsomes, concentration 2 μM, versus enzyme activity in 1% dimethylsulfoxide
Procedure: as §1, §2

| Efficiency (%) liver (ACAT inhibition) [1] [%] | Efficiency (%) mucosa (ACAT inhibition) [2] [%] | Molecule |
| --- | --- | --- |
| 19 | 31 | 1-(2,4-Dimethylphenyl)-3-((4′-nitrophenylthio)-phenyl)-urea [Example 39] |
| 34 | 45 | 1-(3-Trifluoromethylphenyl)-3-((4′-nitrophenylthio)-phenyl)-urea [Example 44] |
| 37 | 55 | O=C(Nc1ccc(Oc2ccc([N+](=O)[O-])cc2)cc1)Nc1ccc(F)cc1F [Example 2] |
| 49 | 58 | O=C(Nc1ccc(Oc2ccc([N+](=O)[O-])cc2)cc1)Nc1cc(F)ccc1F [Example 3, 1-(2,5-Difluorophenyl)-3-((4′-nitrophenoxy)-phenyl)-urea] |
| 0 | 42 | O=C(Nc1ccc(Oc2ccc([N+](=O)[O-])cc2)cc1)Nc1c(F)cccc1F [Example 4, 1-(2,6-Difluorophenyl)-3-((4′-nitrophenoxy)-phenyl)-urea] |
| 0 | 0 | O=C(Nc1ccc(Oc2ccc([N+](=O)[O-])cc2)cc1)Nc1ccccc1Cl [Example 5, 1-(2-Chlorophenyl)-3-((4′-nitrophenoxy)-phenyl)-urea] |
| 20 | 25 | O=C(Nc1ccc(Oc2ccc([N+](=O)[O-])cc2)cc1)Nc1c(Cl)cccc1Cl [Example 7, 1-(2,6-Dichlorophenyl)-3-((4′-nitrophenoxy)-phenyl)-urea] |
| 0 | 0 | O=C(Nc1ccc(Oc2ccc([N+](=O)[O-])cc2)cc1)Nc1cc(Cl)cc(Cl)c1 [Example 8, 1-(3,5-Dichlorophenyl)-3-((4′-nitrophenoxy)-phenyl)-urea] |
| 0 | 0 | Cc1ccccc1NC(=O)Nc1ccc(Oc2ccc([N+](=O)[O-])cc2)cc1 [Example 9] |
| 0 | 0 | Cc1ccc(NC(=O)Nc2ccc(Oc3ccc([N+](=O)[O-])cc3)cc2)cc1 [Example 10, 1-(4-Methylphenyl)-3-((4′-nitrophenoxy)-phenyl)-urea] |
| 0 | 0 | Cc1ccc(NC(=O)Nc2ccc(Oc3ccc([N+](=O)[O-])cc3)cc2)c(C)c1 [Example 11, 1-(2,4-Dimethylphenyl)-3-((4′-nitrophenoxy)-phenyl)-urea] |
| 41 | 65 | Cc1cccc(C)c1NC(=O)Nc1ccc(Oc2ccc([N+](=O)[O-])cc2)cc1 [Example 12, 1-(2,6-Dimethylphenyl)-3-((4′-nitrophenoxy)-phenyl)-urea] |
| 0 | 0 | Cc1cc(C)cc(NC(=O)Nc2ccc(Oc3ccc([N+](=O)[O-])cc3)cc2)c1 [Example 13, 1-(3,5-Dimethylphenyl)-3-((4′-nitrophenoxy)-phenyl)-urea] |
| 50 | 67 | CC(C)c1cccc(C(C)C)c1NC(=O)Nc1ccc(Oc2ccc([N+](=O)[O-])cc2)cc1 [Example 14, 1-(2,6-Di-(methylethyl)-phenyl)-3-((4′-nitrophenoxy)-phenyl)-urea] |
| 46 | 42 | O=C(Nc1ccc(Oc2ccc([N+](=O)[O-])cc2)cc1)Nc1ccccc1C(F)(F)F [Example 15, 1-(2-Trifluoromethylphenyl)-3-((4′-nitrophenoxy)-phenyl)-urea] |
| 38 | 45 | O=C(Nc1ccc(Oc2ccc([N+](=O)[O-])cc2)cc1)Nc1cccc(C(F)(F)F)c1 [Example 16, 1-(3-Trifluoromethylphenyl)-3-((4′-nitrophenoxy)-phenyl)-urea] |
| 25 | 18 | O=C(Nc1ccc(Oc2ccc([N+](=O)[O-])cc2)cc1)Nc1ccc(C(F)(F)F)cc1 [Example 17, 1-(4-Trifluoromethylphenyl)-3-((4′-nitrophenoxy)-phenyl)-urea] |
| 26 | 34 | O=C(Nc1ccc(Oc2ccc([N+](=O)[O-])cc2)cc1)Nc1ccccn1 [Example 18] |

| Efficiency (%) liver (ACAT inhibition) [1] [%] | Efficiency (%) mucosa (ACAT inhibition) [2] [%] | Molecule |
| --- | --- | --- |
| 0 | 0 | O=C(Nc1ccc(Oc2ccc([N+](=O)[O-])cc2)cc1)Nc1cccnc1 [Example 19] |
| 11 | 17 | O=C(Nc1ccncc1)Nc1ccc(Oc2ccc([N+](=O)[O-])cc2)cc1 [Example 20] |
| 14 | 22 | O=C(Nc1ccc(Oc2ccc([N+](=O)[O-])cc2)cc1)Nc1cccc2ccccc12 [Example 21] |
| 0 | 12 | O=C(Nc1ccc(Oc2ccc([N+](=O)[O-])cc2)cc1)Nc1ccc2ccccc2c1 [Example 22] |
| 43 | 58 | O=C(Nc1ccc(Oc2ccc([N+](=O)[O-])cc2)cc1)NC12CC3CC(CC(C3)C1)C2 [Example 23] |
| 0 | 34 | O=C(Nc1ccc(Sc2ccc([N+](=O)[O-])cc2)cc1)Nc1ccc([N+](=O)[O-])cc1 [Example 24, 1-(4-Nitrophenyl)-3-((4′-nitrophenylthio)-phenyl)-urea] |
| 0 | 23 | O=C(Nc1ccc(Sc2ccc([N+](=O)[O-])cc2)cc1)Nc1ccccc1F [Example 25, 1-(2-Fluorophenyl)-3-((4′-nitrophenylthio)-phenyl)-urea] |
| 25 | 27 | O=C(Nc1ccc(F)cc1)Nc1ccc(Sc2ccc([N+](=O)[O-])cc2)cc1 [Example 26, 1-(4-Fluorophenyl)-3-((4′-nitrophenylthio)-phenyl)-urea] |
| 16 | 23 | O=C(Nc1ccc(Sc2ccc([N+](=O)[O-])cc2)cc1)Nc1ccc(F)cc1F [Example 27, 1-(2,4-Difluorophenyl)-3-((4′-nitrophenylthio)-phenyl)-urea] |
| 0 | 16 | O=C(Nc1ccc(Sc2ccc([N+](=O)[O-])cc2)cc1)Nc1cc(F)ccc1F [Example 28, 1-(2,5-Difluorophenyl)-3-((4′-nitrophenylthio)-phenyl)-urea] |
| 11 | 25 | O=C(Nc1ccc(Sc2ccc([N+](=O)[O-])cc2)cc1)Nc1c(F)cccc1F [Example 29, 1-(2,6-Difluorophenyl)-3-((4′-nitrophenylthio)-phenyl)-urea] |
| 20 | 26 | O=C(Nc1ccc(Sc2ccc([N+](=O)[O-])cc2)cc1)Nc1ccccc1Cl [Example 30, 1-(2-Chlorophenyl)-3-((4′-nitrophenylthio)-phenyl)-urea] |
| 12 | 21 | O=C(Nc1ccc(Cl)cc1)Nc1ccc(Sc2ccc([N+](=O)[O-])cc2)cc1 [Example 31, 1-(4-Chlorophenyl)-3-((4′-nitrophenylthio)-phenyl)-urea] |
| 0 | 0 | O=C(Nc1ccc(Sc2ccc([N+](=O)[O-])cc2)cc1)Nc1cccc(Cl)c1Cl [Example 32, 1-(2,3-Dichlorophenyl)-3-((4′-nitrophenylthio)-phenyl)-urea] |
| 12 | 16 | O=C(Nc1ccc(Sc2ccc([N+](=O)[O-])cc2)cc1)Nc1ccc(Cl)cc1Cl [Example 33, 1-(2,4-Dichlorophenyl)-3-((4′-nitrophenylthio)-phenyl)-urea] |
| 15 | 21 | O=C(Nc1ccc(Sc2ccc([N+](=O)[O-])cc2)cc1)Nc1c(Cl)cccc1Cl [Example 34, 1-(2,6-Dichlorophenyl)-3-((4′-nitrophenylthio)-phenyl)-urea] |
| 0 | 20 | O=C(Nc1ccc(Sc2ccc([N+](=O)[O-])cc2)cc1)Nc1ccc(Cl)c(Cl)c1 [Example 35, 1-(3,4-Dichlorophenyl)-3-((4′-nitrophenylthio)-phenyl)-urea] |
| 0 | 0 | O=C(Nc1ccc(Sc2ccc([N+](=O)[O-])cc2)cc1)Nc1cc(Cl)cc(Cl)c1 [Example 36, 1-(3,5-Dichlorophenyl)-3-((4′-nitrophenylthio)-phenyl)-urea] |

| Molecule | Efficiency (%) liver (ACAT inhibition) [1] [%] | Efficiency (%) mucosa (ACAT inhibition) [2] [%] |
| --- | --- | --- |
| 1-(2,6-Dimethylphenyl)-3-((4′-nitrophenylthio)-phenyl)-urea [Example 40] | 23 | 34 |
| O=C(Nc1ccc(Oc2ccc([N+](=O)[O-])cc2)cc1)Nc1ccccc1F [Example 1, 1-(2-Fluorophenyl)-3-((4′-nitrophenoxy)-phenyl)-urea] | 15 | 32 |
| O=C(Nc1ccc(Oc2ccc([N+](=O)[O-])cc2)cc1)Nc1cccc(Cl)c1Cl [Example 6, 1-(2,3-Dichlorohenyl)-3-((4′-nitrophenoxy)-phenyl)-urea] | 58 | 51 |
